Experiment [1] concerns hypoxic-ischemic brain injury. Kind of experiment: hypoxic-ischemic brain injury mouse model, cerebral infarct volume. In kind it is in vivo. The following applies: direct acute administration of NPD1 (10 ng, 20 ng) after hypoxic-ischemic injury, compared to control (saline) group; FIG. 2A.

Experimental for brain mitochondria: FIG. 2C is a western blot mean quantification for BAX 6A7 in naïve (n=6), saline (n=7) and NPD1 (n=8) at 4 h after ischemic injury.

Turning to `CC/C=C\C[C@H](O)\C=C/C=C/C=C/[C@H](O)C/C=C\C/C=C\CCC(=O)O` [NPD1, neuroprotection D1], in the experiment on brain mitochondria (NPD1 treatment after hypoxic-ischemic injury), the “mitochondrial Ca2+ buffering capacity” value was “preserved mitochondrial Ca2+ buffering capacity”. Moreover, the “mitochondria-related cell death pathways” value with brain mitochondria (NPD1 treatment, BAX 6A7 western blot at 4 h after ischemic injury (FIG. 2C)) is recorded as “reduced mitochondria-related cell death pathways”. Moreover, the cerebral infarct volumes entry in experiment [1] is given as “significant reduction in cerebral infarct volumes”.

Values taken from patent US20240390502A1, “DELIVERY SYSTEMS FOR BIOACTIVE LIPIDS” (The Trustees of Columbia University in The City of New York, priority 2021, published 2024).
